Source: patent US10059667B2, “Antidiabetic compounds” (MERCK SHARP & DOHME CORP., priority 2014, dated 2018)

Tests used:
Format in all cases: cell-based
[1] = target: T1, Human GPR40 (Homo sapiens (Human), UniProt O14842); experiment: Inositol Phosphate Turnover (IP1) Assay 2, HEK cells stably expressing human GPR40, CisBio IP-One kit; conditions: HEK cells stably expressing human GPR40, 384-well
Protocol: (§1) Human and mouse GPR40 stable cell-lines were generated in CHO cells stably expressing NFAT BLA (Beta-lactamase). A human GPR40 stable cell-line was generated in HEK cells stably expressing the aequorin expressing reporter. The expression plasmids were transfected using lipofectamine (Life Technologies) following manufacturer's instructions. Stable cell-lines were generated following drug selection.
The assay was performed in 384-well format. HEK cells stably expressing human GPR40 were plated at 15,000 cells per well in growth medium (DMEM/10% fetal calf serum). Cell plates were then incubated 16 hours at 37 degrees in a 5% CO2 incubator.
Measurement of Inositol Phosphate Turnover (IP1) was performed using the CisBio IP-One kit (Part number 62IPAPEB). After the 16 hour incubation, the cells were washed with HEPES buffer and 10 ul of stimulation buffer (prepared as described in the kit) was added to each well. In a separate plate, compounds were diluted in DMSO (400-fold over the final concentration in the assay well) and 25 nl was acoustically transferred to the appropriate well in the assay cell plate.
The plates were then incubated for 60 minutes at 37 degrees. 10 ul of detection buffer (also prepared as described in the IP-One kit) was added to each well and the plates were incubated for 60 minutes in the dark. The plates were then read in a Perkin Elmer EnVision or equivalent reader able to measure FRET. Fluorescent ratio of emission at 665 and 620 nm was then converted to IP1 concentration by back calculating from an IP1 standard curve prepared at the time of the assay.

[2] = target: T1, Human GPR40; experiment: Inositol Phosphate Turnover (IP1) Assay 1, HEK cells stably expressing human GPR40, 3H-inositol SPA; conditions: HEK cells stably expressing human GPR40, 96-well
Method in brief: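 HEK cells stably expressing human GPR40, labelled 18 h with 3H-myo-inositol in inositol-free medium with 0.4% human or mouse albumin. LiCl added 20 min at 37 degrees, then compound 60 min at 37 degrees; formic acid lysates counted by YSi SPA beads for inositol phosphates.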

[3] = target: T1, Human GPR40; experiment: FLIPR assay, agonist-induced calcium mobilization in GPR40/CHO NFAT BLA cells
Protocol: as §1
FLIPR (Fluorimetric Imaging Plate Reader, Molecular Devices) assays were performed to measure agonist-induced calcium mobilization of the stable clones. For the FLIPR assay, one day before assay, GPR40/CHO NFAT BLA cells were seeded into black-wall-clear-bottom 384-well plates (Costar) at 1.4×10e4 cells/20 μL medium/well. The cells were incubated with 20 μl/well of the assay buffer (HBSS, 0.1% BSA, 20 mM HEPES, 2.5 mM probenecid, pH 7.4) containing 8 μM fluo-4, AM, 0.08% pluronic acid at room temperature for 100 minutes. Fluorescence output was measured using FLIPR. Compounds were dissolved in DMSO and diluted to desired concentrations with assay buffer. 13.3 μL/well of compound solution was added.

T1 sequence (O14842 whole entry): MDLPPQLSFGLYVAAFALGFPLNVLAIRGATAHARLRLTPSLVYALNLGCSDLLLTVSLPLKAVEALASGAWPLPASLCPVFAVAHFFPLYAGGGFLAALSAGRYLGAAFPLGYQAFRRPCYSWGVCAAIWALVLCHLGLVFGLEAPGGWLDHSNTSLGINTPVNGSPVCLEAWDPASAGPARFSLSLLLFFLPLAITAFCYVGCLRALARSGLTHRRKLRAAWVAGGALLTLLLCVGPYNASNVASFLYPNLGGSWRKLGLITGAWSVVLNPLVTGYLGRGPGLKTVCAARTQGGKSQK

Row | Compound | EC50 [1] | EC50 [2] | EC50 [3]
1 | COc1cc(C2CC(COc3cccc([C@H](C4CC4)[C@H](C)C(=O)O)c3)C2)c(F)cn1 (single isomer, unassigned) [Example 90] | 96 nM | – | –
2 | COc1cc(C2CC(COc3cccc([C@H](C4CC4)[C@H](C)C(=O)O)c3)C2)c(F)cn1 (single isomer, unassigned) [Example 91] | 7.4 nM | – | –
3 | O=C(O)C[C@H](c1cccc(OCCC2CN(Cc3cc(C(F)(F)F)ccc3C(F)(F)F)C2)c1)C1CC1 [Example 18, (S)-3-(3-(2-(1-(2,5-Bis(trifluoromethyl)benzyl)azetidin-3-yl)ethoxy)phenyl)-3-cyclopropylpropanoic acid] | – | 3710 nM | 359 nM
4 | COc1ccc(F)cc1CN1CCC(COc2cccc([C@@H](CC(=O)O)C3CC3)c2)C1 (stereo partly drawn) [Example 20, (3S)-3-Cyclopropyl-3-(3-((1-(5-fluoro-2-methoxybenzyl)pyrrolidin-3-yl)methoxy)phenyl)propanoic acid] | – | 10000 nM | 266 nM
5 | C[C@H](C(=O)O)[C@H](c1cccc(OCC2CN(c3ncccc3C(F)(F)F)C2)c1)C1CC1 [Example 21, (2S,3R)-3-Cyclopropyl-2-methyl-3-(3-((1-(3-(trifluoromethyl)pyridin-2-yl)azetidin-3-yl)methoxy)phenyl)propanoic acid] | – | 297 nM | 13 nM
6 | C[C@H](C(=O)O)[C@H](c1cccc(OCC2CN(Cc3cc(C(F)(F)F)ccc3C(F)(F)F)C2)c1)C1CC1 [Example 25, (2S,3R)-3-(3-((1-(2,5-Bis(trifluoromethyl)benzyl)azetidin-3-yl)methoxy)phenyl)-3-cyclopropyl-2-methylpropanoic acid] | – | 79 nM | 1.4 nM
7 | C[C@H](C(=O)O)[C@H](c1cccc(OC[C@@H]2CCN(Cc3cc(C(F)(F)F)ccc3C(F)(F)F)C2)c1)C1CC1 [Example 26] | – | 55 nM | 1.5 nM
8 | CC(c1cc(C(F)(F)F)ccc1C(F)(F)F)N1CC(COc2cccc([C@H](C3CC3)[C@H](C)C(=O)O)c2)C1 (stereo partly shown) [Example 27] | – | 7.6 nM | 0.3 nM
9 | C[C@H](C(=O)O)[C@H](c1cccc(OCC2CCN(Cc3cc(C(F)(F)F)ccc3C(F)(F)F)CC2)c1)C1CC1 [Example 31] | – | 77 nM | 1 nM
10 | C[C@H](C(=O)O)[C@H](c1cccc(OC[C@H]2CCN(Cc3cc(C(F)(F)F)ccc3C(F)(F)F)C2)c1)C1CC1 [Example 33] | – | 158 nM | 5.3 nM
11 | C[C@H](C(=O)O)[C@H](c1cccc(OCC2CCN(Cc3cc(C(F)(F)F)ccc3C(F)(F)F)C2)c1)C1CC1 (stereo partly shown) [Example 34] | – | 273 nM | 10 nM
12 | O=C(O)C[C@H](c1cccc(OC2CCN(Cc3cc(C(F)(F)F)ccc3Cl)C2)c1)C1CC1 (stereo partly shown) [Example 42] | – | 1120 nM | 94 nM
13 | CC1(COc2cccc([C@@H](CC(=O)O)C3CC3)c2)CCN(Cc2cc(C(F)(F)F)ccc2C(F)(F)F)C1 (stereo partly shown) [Example 43] | – | 952 nM | 231 nM
14 | CC(c1cc(F)ccc1Cl)N1CC(COc2cccc([C@@H](CC(=O)O)C3CC3)c2)C1 (stereo partly shown) [Example 51] | – | 449 nM | 58 nM
15 | CC(c1ccccc1Cl)N1CC(COc2cccc([C@@H](CC(=O)O)C3CC3)c2)C1 (stereo partly shown) [Example 52] | – | 5640 nM | 162 nM
16 | O=C(O)C[C@H](c1cccc(OCC2CN(Cc3c(F)cccc3C(F)(F)F)C2)c1)C1CC1 [Example 53] | – | 4570 nM | 389 nM
17 | CC(c1cc(C(F)(F)F)ccc1C(F)(F)F)N1CC(COc2cccc([C@@H](CC(=O)O)C3CC3)c2)C1 (stereo partly shown) [Example 54] | – | 27 nM | 0.6 nM
18 | CC(c1ccccc1C(F)(F)F)N1CC(COc2cccc([C@@H](CC(=O)O)C3CC3)c2)C1 (stereo partly shown) [Example 55] | – | 904 nM | 7.3 nM
19 | CC(c1cc(Cl)ccc1Cl)N1CC(COc2cccc([C@@H](CC(=O)O)C3CC3)c2)C1 (stereo partly shown) [Example 56] | – | 347 nM | 23 nM
20 | CC(c1cc(C(F)(F)F)ccc1C1CC1)N1CC(COc2cccc([C@@H](CC(=O)O)C3CC3)c2)C1 (stereo partly shown) [Example 58] | – | 366 nM | 113 nM
21 | CC(c1cc(C(F)(F)F)ccc1Cl)N1CC(COc2cccc([C@@H](CC(=O)O)C3CC3)c2)C1 (stereo partly shown) [Example 60] | – | 527 nM | 184 nM
22 | COc1cccc(C2CC2COc2cccc([C@@H](CC(=O)O)C3CC3)c2)c1 (stereo partly shown) [Example 61, (3 S)-3-cyclopropyl-3-(3-((2-(3-methoxyphenyl)cyclopropyl)methoxy)phenyl)propanoic acid] | – | 651 nM | 24 nM

The next lines start with the values.

Row | EC50 [1] | EC50 [2] | EC50 [3] | Compound
23 | – | 4780 nM | 497 nM | COc1ccc(F)cc1CN1CC(COc2cccc([C@@H](CC(=O)O)C3CC3)c2)C1 [Example 19, (S)-3-Cyclopropyl-3-(3-((1-(5-fluoro-2-methoxybenzyl)azetidin-3-yl)methoxy)-phenyl)propanoic acid]
24 | – | 2610 nM | 85 nM | CC1(C)CN(Cc2cc(C(F)(F)F)ccc2C(F)(F)F)CC1COc1cccc([C@@H](CC(=O)O)C2CC2)c1 (stereo partly drawn) [Example 22, (3S)-3-(3-((1-(2,5-Bis(trifluoromethyl)benzyl)-4,4-dimethylpyrrolidin-3-yl)methoxy)phenyl)-3-cyclopropylpropanoic acid]
25 | – | 1040 nM | 72 nM | O=C(O)C[C@H](c1cccc(OC2CCN(Cc3cc(C(F)(F)F)ccc3C(F)(F)F)C2)c1)C1CC1 (stereo partly drawn) [Example 23, (3S)-3-(3-((1-(2,5-Bis(trifluoromethyl)benzyl)pyrrolidin-3-yl)oxy)phenyl)-3-cyclopropylpropanoic acid]
26 | – | 524 nM | 7.4 nM | O=C(O)C[C@H](c1cccc(OC2CCCN(Cc3cc(C(F)(F)F)ccc3C(F)(F)F)C2)c1)C1CC1 (stereo partly drawn) [Example 24, (3S)-3-(3-((1-(2,5-Bis(trifluoromethyl)benzyl)piperidin-3-yl)oxy)phenyl)-3-cyclopropylpropanoic acid]
27 | – | 613 nM | 21 nM | C[C@H](C(=O)O)[C@H](c1cccc(OCC2CN(Cc3cc(C(F)(F)F)ccc3C(F)(F)F)CCO2)c1)C1CC1 (stereo partly shown) [Example 28]
28 | – | 711 nM | 51 nM | C[C@H](C(=O)O)[C@H](c1cccc(O[C@H]2CCCN(Cc3cc(C(F)(F)F)ccc3C(F)(F)F)C2)c1)C1CC1 [Example 29]
29 | – | 279 nM | 33 nM | C[C@H](C(=O)O)[C@H](c1cccc(OCC2CN(c3cccc(C(F)(F)F)n3)C2)c1)C1CC1 [Example 30]
30 | – | 764 nM | 59 nM | C[C@H](C(=O)O)[C@H](c1cccc(OC2CN(Cc3cc(C(F)(F)F)ccc3C(F)(F)F)C2)c1)C1CC1 [Example 32]
31 | – | 560 nM | 42 nM | O=C(O)C[C@H](c1cccc(OCC2CCN(Cc3cc(C(F)(F)F)ccc3C(F)(F)F)C2)c1)C1CC1 (stereo partly shown) [Example 47]
32 | – | 1020 nM | 142 nM | O=C(O)C[C@H](c1cccc(OC2CCN(Cc3cc(C(F)(F)F)ccc3C(F)(F)F)CC2)c1)C1CC1 [Example 48]
33 | – | 251 nM | 8.3 nM | O=C(O)C[C@H](c1cccc(OCC2CN(Cc3cc(C(F)(F)F)ccc3C(F)(F)F)C2)c1)C1CC1 [Example 49]
34 | – | 5030 nM | 55 nM | O=C(O)C[C@H](c1cccc(OCC2CN(Cc3ccccc3OC(F)(F)F)C2)c1)C1CC1 [Example 50]
35 | – | 777 nM | 439 nM | Cc1ccc(C(F)(F)F)cc1C(C)N1CC(COc2cccc([C@@H](CC(=O)O)C3CC3)c2)C1 (stereo partly shown) [Example 59]
36 | 13 nM | 23 nM | – | COc1cc(C2CC(COc3cccc([C@H](C4CC4)[C@H](C)C(=O)O)c3)C2)c(F)cn1 (stereo partly shown) [Example 87]
